Laboratory results: patent US8629175B2, “Functional food additives” (priority 2009, dated 2014)

Legend:
[1] = acute food intake experiment in rats; format: in vivo
Procedure: An acute experiment with rats has been conducted recently after complying with Swedish Ethical regulations. Seven groups of rats (n=4-5) were given an acute test dose (100-200 mg/kg) of the control vehicle (rapeseed oil) and test conjugates. Part of the results is shown here in FIG. 4.

[2] = antioxidant (antiradical) activity using DPPH radical
Procedure: The antioxidant (AO) activity of DAG-DHLA was determined using DPPH. radical following the published methods (Brand-Williams, W. et al. (1995). Lebensm. Wiss. U.-Technol. 28:25-30).
Antioxidant solution in toluene (0.1 mL) was added to 3.9 mL of a 6×10^−5 mol/L toluene DPPH. solution. Absorbance was determined at 515 nm at 0 min, and every 30 min until the reaction reached a plateau. For each DAG-DHLA concentration tested, the reaction kinetics was plotted. From this graph, the percentage of DPPH. remaining at the steady state was recorded and the values transferred onto another graph showing the percentage of residual DPPH. at the steady state as a function of the molar ratio of antioxidant to DPPH..

Question: For CCCCCCCC/C=C\CCCCCCCC(=O)OCC(COC(=O)CCCCCCC/C=C\CCCCCCCC)OC(=O)CCCCC(S)CCS (stereo not drawn) [compound 2, 1,3-Dioleoyl-2-dihydrolipoate-sn-glycerol], which acute food intake ([1]; acute test dose 200 mg/kg, after 4 hours, compared to vehicle (rapeseed oil), FIG. 4) is on record?
Answer: Its acute food intake is “seems to block food intake”.

Question: What about the “EC50 (Efficient concentration), amount of antioxidant necessary to decrease the initial DPPH. concentration by 50%” value ([2]; 6×10^−5 mol/L DPPH. in toluene, steady state, 515 nm) of the same compound?
Answer: Its value is 0.21 (mol/L) AO/(mol/L) DPPH.

Question: And the “Number of reduced DPPH. (1/EC100), DPPH. moles reduced by one mole of antioxidant” value ([2]; DPPH. in toluene)?
Answer: The value was 2.34.

Question: And the Kinetic behaviour ([2]; reaction with DPPH. in toluene, absorbance at 515 nm)?
Answer: Its Kinetic behaviour is “Rapid”.

Question: What does the source list for CCCCCCCC/C=C\CCCCCCCC(=O)OCC(COC(=O)CCCCCCC/C=C\CCCCCCCC)OC(=O)CCCCC1CCSS1 (stereo not drawn) [compound 1, 1,3-Dioleoyl-2-lipoyl-sn-glycerol]?
Answer: acute food intake ([1]; acute test dose (100-200 mg/kg), compared with the DAG-DHLA result): Rather similar result; antioxidant activity (in words) ([2]; DPPH. in toluene, in parallel, compared with DAG-DHLA): negligible antioxidant activity
